According to ChEMBL document CHEMBL1208783, “An orally bioavailable positive allosteric modulator of the mGlu4 receptor with efficacy in an animal model of motor dysfunction” (Bioorg Med Chem Lett, 2010):
One block for each compound: values may come before it.

Legend:
[1] = molecular target: T1, Metabotropic glutamate receptor 4 (Homo sapiens, UniProt Q14833); assay: Positive allosteric modulation of human mGluR4 expressed in CHO-K1 cells assessed as decrease in forskolin-induced intracellular cAMP accumulation after 1 hr by fluorescence assay relative to (-)-PHCC; assay type: functional, cell-based
T1 sequence (Q14833 whole entry): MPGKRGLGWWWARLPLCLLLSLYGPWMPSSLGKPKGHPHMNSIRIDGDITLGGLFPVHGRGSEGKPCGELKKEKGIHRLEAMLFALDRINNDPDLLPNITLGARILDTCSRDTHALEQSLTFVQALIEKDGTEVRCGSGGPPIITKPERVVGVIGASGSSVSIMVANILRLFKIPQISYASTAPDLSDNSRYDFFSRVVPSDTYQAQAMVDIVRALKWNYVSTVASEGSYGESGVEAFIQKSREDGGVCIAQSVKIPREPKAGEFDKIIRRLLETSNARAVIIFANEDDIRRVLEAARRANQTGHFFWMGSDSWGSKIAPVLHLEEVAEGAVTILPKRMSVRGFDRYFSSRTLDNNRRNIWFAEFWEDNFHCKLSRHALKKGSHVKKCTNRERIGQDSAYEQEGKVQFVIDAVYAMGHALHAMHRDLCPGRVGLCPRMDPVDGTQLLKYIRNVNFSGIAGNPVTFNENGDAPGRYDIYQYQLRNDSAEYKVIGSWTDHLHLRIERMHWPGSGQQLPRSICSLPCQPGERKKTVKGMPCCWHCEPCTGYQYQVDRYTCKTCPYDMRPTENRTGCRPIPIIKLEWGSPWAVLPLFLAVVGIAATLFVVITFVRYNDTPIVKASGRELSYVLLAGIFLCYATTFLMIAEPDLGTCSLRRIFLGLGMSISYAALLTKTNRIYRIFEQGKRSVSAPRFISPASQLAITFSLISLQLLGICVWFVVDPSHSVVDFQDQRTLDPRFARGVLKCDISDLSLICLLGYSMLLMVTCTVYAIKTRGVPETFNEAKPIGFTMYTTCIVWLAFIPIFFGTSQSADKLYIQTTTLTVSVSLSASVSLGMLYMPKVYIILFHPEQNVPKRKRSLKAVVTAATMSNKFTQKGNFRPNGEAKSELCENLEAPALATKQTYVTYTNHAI

[2] = molecular target: T1, Metabotropic glutamate receptor 4; assay: Positive allosteric modulation of human mGluR4 expressed in CHO-K1 cells assessed as decrease in forskolin-induced intracellular cAMP accumulation after 1 hr by fluorescence assay; assay type: functional, cell-based
[3] = molecular target: T2, Metabotropic glutamate receptor 5 (Homo sapiens, UniProt P41594); assay: Negative allosteric modulation of human mGluR5 expressed in CHO-K1 cells; assay type: cell-based
T2 sequence (P41594 whole entry): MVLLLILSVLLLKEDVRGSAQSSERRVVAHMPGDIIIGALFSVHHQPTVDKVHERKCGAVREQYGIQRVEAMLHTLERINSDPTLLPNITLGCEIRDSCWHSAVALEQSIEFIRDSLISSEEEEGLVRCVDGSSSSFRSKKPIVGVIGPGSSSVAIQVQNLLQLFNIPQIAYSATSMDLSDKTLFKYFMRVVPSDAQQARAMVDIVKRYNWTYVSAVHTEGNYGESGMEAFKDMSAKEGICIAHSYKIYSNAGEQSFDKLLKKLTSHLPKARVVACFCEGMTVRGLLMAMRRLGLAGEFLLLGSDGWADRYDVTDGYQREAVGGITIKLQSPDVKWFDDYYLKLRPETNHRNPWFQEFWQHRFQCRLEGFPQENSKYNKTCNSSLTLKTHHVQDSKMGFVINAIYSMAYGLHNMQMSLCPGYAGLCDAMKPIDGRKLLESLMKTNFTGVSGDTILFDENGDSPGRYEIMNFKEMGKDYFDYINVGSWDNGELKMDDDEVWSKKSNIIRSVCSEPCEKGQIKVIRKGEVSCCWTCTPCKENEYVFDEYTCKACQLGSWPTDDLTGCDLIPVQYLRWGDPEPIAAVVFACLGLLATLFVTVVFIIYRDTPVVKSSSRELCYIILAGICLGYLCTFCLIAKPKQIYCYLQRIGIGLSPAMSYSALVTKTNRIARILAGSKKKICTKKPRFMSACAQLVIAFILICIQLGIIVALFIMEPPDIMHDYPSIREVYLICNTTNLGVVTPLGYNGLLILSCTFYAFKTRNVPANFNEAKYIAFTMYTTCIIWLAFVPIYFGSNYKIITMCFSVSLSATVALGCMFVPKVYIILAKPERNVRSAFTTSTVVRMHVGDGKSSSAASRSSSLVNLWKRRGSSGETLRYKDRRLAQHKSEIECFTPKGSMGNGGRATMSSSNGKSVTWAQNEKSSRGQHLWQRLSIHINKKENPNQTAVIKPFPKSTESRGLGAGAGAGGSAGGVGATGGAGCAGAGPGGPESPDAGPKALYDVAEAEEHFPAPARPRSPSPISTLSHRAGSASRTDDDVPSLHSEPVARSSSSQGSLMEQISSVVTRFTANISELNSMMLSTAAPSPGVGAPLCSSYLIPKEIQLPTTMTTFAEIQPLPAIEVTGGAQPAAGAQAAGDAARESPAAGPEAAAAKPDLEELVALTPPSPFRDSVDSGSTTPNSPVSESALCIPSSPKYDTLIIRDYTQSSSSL

[4] = Mean residence time in rat at 2 mg/kg, iv; assay type: ADME, organism-based; design: dose 2 mg/kg, route intravenous; conditions: in vivo, read-out: Time
[5] = Drug level in rat CSF at 30 mg/kg, po measured at 30 mins post dose; assay type: ADME, organism-based, Cerebrospinal fluid; design: dose 30 mg/kg, route oral; conditions: read-out: Drug uptake
[6] = Volume of distribution in rat at 2 mg/kg, iv; assay type: ADME, organism-based; design: dose 2 mg/kg, route intravenous; conditions: in vivo
Cytochrome P450 3A4 = Cytochrome P450 3A4 (Homo sapiens, UniProt P08684); assay: Inhibition of CYP3A4 up to 50 uM; assay type: ADME
Chain of Cytochrome P450 3A4 (P08684 whole entry): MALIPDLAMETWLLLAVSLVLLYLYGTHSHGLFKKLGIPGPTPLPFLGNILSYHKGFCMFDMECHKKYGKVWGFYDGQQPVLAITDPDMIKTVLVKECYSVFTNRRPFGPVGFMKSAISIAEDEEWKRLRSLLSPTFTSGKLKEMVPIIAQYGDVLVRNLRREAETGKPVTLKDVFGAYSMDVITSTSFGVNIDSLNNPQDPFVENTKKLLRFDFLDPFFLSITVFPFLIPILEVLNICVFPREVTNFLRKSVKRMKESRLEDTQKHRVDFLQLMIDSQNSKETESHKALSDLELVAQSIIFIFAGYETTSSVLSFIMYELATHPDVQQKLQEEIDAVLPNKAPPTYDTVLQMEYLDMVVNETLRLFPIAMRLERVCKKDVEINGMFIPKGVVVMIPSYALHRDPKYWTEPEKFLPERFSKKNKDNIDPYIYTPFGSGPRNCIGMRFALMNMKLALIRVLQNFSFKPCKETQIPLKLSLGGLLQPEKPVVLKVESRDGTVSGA

[7] = molecular target: Adenosine receptor A2a (Homo sapiens) (UniProt P29274); assay: Activity at adenosine A2A receptor at 10 uM
Chain of Adenosine receptor A2a (Homo sapiens) (P29274 whole entry): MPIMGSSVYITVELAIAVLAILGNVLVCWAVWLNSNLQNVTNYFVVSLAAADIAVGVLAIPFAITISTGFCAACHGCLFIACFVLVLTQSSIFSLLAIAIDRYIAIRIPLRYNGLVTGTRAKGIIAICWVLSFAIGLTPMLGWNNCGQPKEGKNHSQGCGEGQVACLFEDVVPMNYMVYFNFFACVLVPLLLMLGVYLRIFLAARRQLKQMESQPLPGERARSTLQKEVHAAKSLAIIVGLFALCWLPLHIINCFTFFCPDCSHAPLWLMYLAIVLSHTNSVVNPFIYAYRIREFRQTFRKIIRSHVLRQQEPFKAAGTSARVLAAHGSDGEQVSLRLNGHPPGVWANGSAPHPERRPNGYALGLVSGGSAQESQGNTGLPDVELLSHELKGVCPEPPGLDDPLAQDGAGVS

[8] = Metabolic stability in human microsomes; assay type: ADME, Microsome
[9] = molecular target: Metabotropic glutamate receptor 4 (Rattus norvegicus, UniProt P31423); assay: Positive allosteric modulation of rat mGluR4 expressed in CHO-K1 cells; assay type: cell-based
Chain of Metabotropic glutamate receptor 4 (Rattus norvegicus, UniProt P31423) (P31423 whole entry): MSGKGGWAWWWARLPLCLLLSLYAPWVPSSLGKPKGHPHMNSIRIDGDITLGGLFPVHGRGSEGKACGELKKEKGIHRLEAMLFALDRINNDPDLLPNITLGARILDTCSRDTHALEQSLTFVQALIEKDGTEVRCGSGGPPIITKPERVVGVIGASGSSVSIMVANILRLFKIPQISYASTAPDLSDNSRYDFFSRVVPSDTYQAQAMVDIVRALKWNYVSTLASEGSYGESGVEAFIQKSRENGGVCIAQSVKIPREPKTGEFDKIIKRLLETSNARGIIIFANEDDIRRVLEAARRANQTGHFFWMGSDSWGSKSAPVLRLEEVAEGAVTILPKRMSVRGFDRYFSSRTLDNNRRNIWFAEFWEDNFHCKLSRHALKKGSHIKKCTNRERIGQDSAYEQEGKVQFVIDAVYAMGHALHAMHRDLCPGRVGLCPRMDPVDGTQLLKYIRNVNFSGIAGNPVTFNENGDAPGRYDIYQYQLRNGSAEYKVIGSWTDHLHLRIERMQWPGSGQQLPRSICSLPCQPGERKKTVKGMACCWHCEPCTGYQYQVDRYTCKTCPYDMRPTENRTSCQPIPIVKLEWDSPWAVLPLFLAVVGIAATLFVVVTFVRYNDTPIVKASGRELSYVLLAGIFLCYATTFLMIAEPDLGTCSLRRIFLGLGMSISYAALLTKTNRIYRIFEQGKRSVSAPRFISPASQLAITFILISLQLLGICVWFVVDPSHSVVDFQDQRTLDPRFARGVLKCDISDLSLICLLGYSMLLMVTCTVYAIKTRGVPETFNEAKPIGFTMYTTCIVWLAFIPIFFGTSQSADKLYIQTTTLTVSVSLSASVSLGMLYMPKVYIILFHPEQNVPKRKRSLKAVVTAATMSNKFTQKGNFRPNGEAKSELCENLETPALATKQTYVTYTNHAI

Rattus norvegicus [10] = assay: Inhibition of haloperidol-induced catalepsy in po dosed rat administered 30 mins before haloperidol challenge; assay type: functional, organism-based
[11] = Ratio of drug level in brain to plasma in rat at 30 mg/kg, po measured at 30 mins post dose; assay type: ADME, organism-based; design: dose 30 mg/kg, route oral; conditions: read-out: BPR
[12] = Clearance in rat at 2 mg/kg, iv; assay type: ADME, organism-based; design: dose 2 mg/kg, route intravenous; conditions: in vivo
[13] = molecular target: T2, Metabotropic glutamate receptor 5; assay: Positive allosteric modulation of human mGluR5 expressed in CHO-K1 cells; assay type: cell-based
[14] = molecular target: T3, 5-hydroxytryptamine receptor 1A (Homo sapiens) (UniProt P08908); assay: Activity at 5HT1A receptor at 10 uM
T3 sequence (whole entry): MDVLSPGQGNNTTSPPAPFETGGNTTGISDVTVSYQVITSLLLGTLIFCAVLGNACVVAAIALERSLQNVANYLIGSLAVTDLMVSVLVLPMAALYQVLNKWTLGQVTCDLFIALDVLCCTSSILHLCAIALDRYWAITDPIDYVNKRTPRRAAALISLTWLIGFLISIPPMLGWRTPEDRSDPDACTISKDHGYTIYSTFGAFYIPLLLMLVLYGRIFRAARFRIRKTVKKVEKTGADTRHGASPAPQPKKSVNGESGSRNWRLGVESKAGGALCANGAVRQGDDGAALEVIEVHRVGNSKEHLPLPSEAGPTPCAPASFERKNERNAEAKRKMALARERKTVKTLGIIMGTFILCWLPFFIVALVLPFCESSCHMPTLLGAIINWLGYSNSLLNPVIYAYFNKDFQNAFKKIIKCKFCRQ

Cytochrome P450 2C9 = Cytochrome P450 2C9 (Homo sapiens, UniProt P11712); assay: Inhibition of CYP2C9 up to 50 uM; assay type: ADME
Chain of Cytochrome P450 2C9 (P11712 whole entry): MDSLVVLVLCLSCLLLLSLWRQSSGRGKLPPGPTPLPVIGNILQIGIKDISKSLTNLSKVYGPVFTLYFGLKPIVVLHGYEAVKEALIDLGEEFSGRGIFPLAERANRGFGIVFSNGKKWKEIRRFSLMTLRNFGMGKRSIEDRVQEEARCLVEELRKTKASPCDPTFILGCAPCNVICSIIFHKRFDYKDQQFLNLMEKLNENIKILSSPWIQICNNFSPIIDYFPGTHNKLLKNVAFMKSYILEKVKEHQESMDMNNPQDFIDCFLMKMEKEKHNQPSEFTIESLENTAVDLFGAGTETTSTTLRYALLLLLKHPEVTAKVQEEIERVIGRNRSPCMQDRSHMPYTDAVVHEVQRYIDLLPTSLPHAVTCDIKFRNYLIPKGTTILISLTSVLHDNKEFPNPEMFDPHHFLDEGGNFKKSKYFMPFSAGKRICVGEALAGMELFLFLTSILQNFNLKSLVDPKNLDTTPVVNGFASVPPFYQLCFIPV

Cytochrome P450 2D6 = Cytochrome P450 2D6 (Homo sapiens, UniProt P10635); assay: Inhibition of CYP2D6 up to 50 uM; assay type: ADME
Chain of Cytochrome P450 2D6 (P10635 whole entry): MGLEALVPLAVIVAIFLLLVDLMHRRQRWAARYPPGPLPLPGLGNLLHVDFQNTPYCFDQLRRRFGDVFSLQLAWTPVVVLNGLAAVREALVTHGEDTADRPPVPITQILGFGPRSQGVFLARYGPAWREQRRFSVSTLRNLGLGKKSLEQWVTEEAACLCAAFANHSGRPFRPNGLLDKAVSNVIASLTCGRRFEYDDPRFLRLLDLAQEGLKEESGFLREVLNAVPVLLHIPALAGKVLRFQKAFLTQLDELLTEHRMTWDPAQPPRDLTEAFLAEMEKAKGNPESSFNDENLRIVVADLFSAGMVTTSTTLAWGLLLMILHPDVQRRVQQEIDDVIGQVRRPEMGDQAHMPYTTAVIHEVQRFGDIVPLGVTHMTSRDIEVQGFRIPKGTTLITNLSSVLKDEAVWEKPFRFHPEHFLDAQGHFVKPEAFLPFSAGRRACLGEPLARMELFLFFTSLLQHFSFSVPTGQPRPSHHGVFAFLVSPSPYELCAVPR

[15] = Permeability from basolateral to apical side of human Caco-2 cells; assay type: ADME, cell-based; conditions: read-out: permeability
[16] = Permeability from apical to basolateral side of human Caco-2 cells; assay type: ADME, cell-based; conditions: read-out: permeability
Homo sapiens = organism: Homo sapiens; assay: Hepatic blood flow in human; assay type: ADME, organism-based, Liver
[17] = molecular target: T1, Metabotropic glutamate receptor 4; assay: Agonist activity at human mGluR4 expressed in CHO-K1 cells; assay type: functional, cell-based
[18] = Drug level in rat brain at 30 mg/kg, po measured at 30 mins post dose; assay type: ADME, organism-based; design: dose 30 mg/kg, route oral; conditions: read-out: Drug uptake
[19] = molecular target: T2, Metabotropic glutamate receptor 5; assay: Agonist activity at human mGluR5 expressed in CHO-K1 cells in absence of glutamate; assay type: functional, cell-based
Cytochrome P450 2C19 = Cytochrome P450 2C19 (Homo sapiens, UniProt P33261); assay: Inhibition of CYP2C19 up to 50 uM; assay type: ADME
[20] = Oral bioavailability in rat at 30 mg/kg, po after 30 mins; assay type: ADME, organism-based; conditions: in vivo
[21] = Metabolic stability in rat microsomes; assay type: ADME, Microsome
[22] = molecular target: Metabotropic glutamate receptor 5 (Rattus norvegicus, UniProt P31424); assay: Negative allosteric modulation of rat mGluR5 expressed in CHO-K1 cells; assay type: cell-based
[23] = Plasma protein binding in rat; assay type: ADME, cell-free; conditions: read-out: PPB (converted)
[24] = Drug level in rat plasma at 30 mg/kg, po measured at 30 mins post dose; assay type: ADME, organism-based; design: dose 30 mg/kg, route oral; conditions: read-out: Drug uptake
[25] = molecular target: T4, Alpha-2A adrenergic receptor (Homo sapiens) (UniProt P08913); assay: Activity at adrenergic alpha 2A receptor at 10 uM
T4 sequence (whole entry): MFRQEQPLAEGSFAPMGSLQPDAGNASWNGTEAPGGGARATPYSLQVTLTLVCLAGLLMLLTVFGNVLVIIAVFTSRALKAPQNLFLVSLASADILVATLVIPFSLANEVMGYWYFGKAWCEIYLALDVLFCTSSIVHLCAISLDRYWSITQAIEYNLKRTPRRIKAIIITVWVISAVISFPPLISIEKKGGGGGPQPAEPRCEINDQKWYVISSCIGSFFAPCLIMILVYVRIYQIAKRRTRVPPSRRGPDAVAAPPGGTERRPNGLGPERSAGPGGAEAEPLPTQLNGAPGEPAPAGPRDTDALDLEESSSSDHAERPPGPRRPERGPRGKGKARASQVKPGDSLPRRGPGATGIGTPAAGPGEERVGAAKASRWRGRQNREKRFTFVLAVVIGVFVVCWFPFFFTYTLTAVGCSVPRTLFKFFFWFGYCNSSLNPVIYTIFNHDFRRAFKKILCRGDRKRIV

Rattus norvegicus [26] = organism: Rattus norvegicus; assay: Hepatic blood flow in rat; assay type: ADME, organism-based, Liver

Emax [1]: 92% | EC50 [2]: 11.7 µM
SMILES: Nc1nccc(/C=C/c2ccccn2)n1

Emax [1]: 94% | EC50 [2]: 1.3 µM
SMILES: Nc1ncc(Br)c(/C=C/c2ccccc2)n1

Emax [1]: 98% | EC50 [2]: 4.1 µM
SMILES: Nc1nccc(/C=C/c2cccs2)n1

Emax [1]: 95% | EC50 [2]: 0.6 µM
SMILES: Nc1nc(/C=C/c2ccccc2)cc(C(F)(F)F)n1

EC50 [2]: > 30 µM
SMILES: N#Cc1cccc(/C=C/c2ccnc(N)n2)c1

EC50 [2]: > 30 µM
SMILES: Nc1nccc(-c2ccc3ccccc3c2)n1

EC50 [2]: > 30 µM
SMILES: Nc1nccc(/C=C/c2ccncc2)n1

Emax [1]: 88% | EC50 [2]: 1.6 µM
SMILES: Cc1nc(N)nc(/C=C/c2ccccc2)c1C

Emax [1]: 72% | EC50 [2]: 15.8 µM
SMILES: Nc1cncc(/C=C/c2ccccc2)n1

EC50 [2]: > 30 µM
SMILES: Cc1ccc(/C=C/c2ccnc(N)n2)cc1

Emax [1]: 92% | EC50 [2]: 5.8 µM
SMILES: Nc1cccc(/C=C/c2ccccc2)n1

EC50 [2]: > 30 µM
SMILES: Nc1cc(/C=C/c2ccccc2)nc(N)n1

EC50 [2]: > 30 µM
SMILES: Nc1nccc(-c2cc3ccccc3s2)n1

IC50 [3]: > 30 µM | MRT [4]: 36 min | concentration at 0.5 h [5]: 0.7 µM | Vd [6]: 2.7 L/kg | inhibition (INH) (Cytochrome P450 3A4): Not Active | Activity [7]: > 50% | Stability [8]: 62% | EC50 [9]: 1 µM | Emax [1]: 106% | Kp at 0.5 h [11]: 2.9 | clearance [12]: 75 mL/min/kg | EC50 [13]: > 10 µM | Activity [14]: > 50% | inhibition (INH) (Cytochrome P450 2C9): Not Active | inhibition (INH) (Cytochrome P450 2D6): Not Active | Papp B→A [15]: 19.6 ×10⁻⁶ cm/s | Papp A→B [16]: 41.9 ×10⁻⁶ cm/s | QH (Homo sapiens): 83% | EC50 [17]: > 30 µM | concentration at 0.5 h [18]: 33.8 µM | EC50 [19]: > 10 µM | inhibition (INH) (Cytochrome P450 2C19): Not Active | bioavailability [20]: 51% | Stability [21]: 62% | IC50 [22]: > 10 µM | fraction unbound [23]: 0.1 | EC50 [2]: 1 µM | concentration at 0.5 h [24]: 11.6 µM | Activity [25]: > 50% | QH (Rattus norvegicus [26]): 83%
SMILES: Nc1nccc(/C=C/c2ccccc2)n1
Activity (Rattus norvegicus [10]): Dose-dependent effect | inhibition (Rattus norvegicus [10]): Dose-dependent effect

Emax [1]: 115% | EC50 [2]: 7.8 µM
SMILES: Sc1nccc(/C=C/c2ccccc2)n1

Emax [1]: 58% | EC50 [2]: 4.9 µM
SMILES: Nc1nccc(-c2cc3ccccc3o2)n1

EC50 [2]: > 30 µM
SMILES: N#Cc1ccc(/C=C/c2ccnc(N)n2)cc1

Emax [1]: 102% | EC50 [2]: 1.6 µM
SMILES: Nc1ncc(Cl)c(/C=C/c2ccccc2)n1

Emax [1]: 94% | EC50 [2]: 0.2 µM
SMILES: Cc1cnc(N)nc1/C=C/c1ccccc1

EC50 [2]: > 30 µM
SMILES: Nc1nccc(CCc2ccccc2)n1

EC50 [2]: > 30 µM
SMILES: Nc1nc(O)cc(/C=C/c2ccccc2)n1

EC50 [2]: > 30 µM
SMILES: CS(=O)(=O)Nc1nccc(/C=C/c2ccccc2)n1

Emax [1]: 86% | EC50 [2]: 20 µM
SMILES: Nc1nccc(C#Cc2ccccc2)n1

Emax [1]: 55% | EC50 [2]: 16.4 µM
SMILES: Nc1nccc(/C=C/c2cccnc2)n1

Emax [1]: 99% | EC50 [2]: 0.8 µM
SMILES: Cc1cc(/C=C/c2ccccc2)nc(N)n1

Emax [1]: 106% | EC50 [2]: 4.5 µM
SMILES: Nc1nccc(/C=C/c2ccc(F)cc2)n1

EC50 [2]: > 30 µM
SMILES: CNc1nccc(/C=C/c2ccccc2)n1

Emax [1]: 82% | EC50 [2]: 5 µM
SMILES: CCOC(=O)C(=O)Nc1nccc(/C=C/c2ccccc2)n1

Emax [1]: 67% | EC50 [2]: 6.9 µM
SMILES: Cc1nccc(/C=C/c2ccccc2)n1

EC50 [2]: > 30 µM
SMILES: Nc1ncc([C@@H]2C[C@H]2c2ccccc2)cn1

Emax [1]: 99% | EC50 [2]: 4.5 µM
SMILES: Nc1nccc(/C=C/c2cccc(F)c2)n1

EC50 [2]: > 30 µM
SMILES: Cc1ccccc1/C=C/c1ccnc(N)n1

EC50 [2]: > 30 µM
SMILES: Cc1cccc(/C=C/c2ccnc(N)n2)c1

Emax [1]: 106% | EC50 [2]: 2 µM
SMILES: COc1cc(/C=C/c2ccccc2)nc(N)n1

Emax [1]: 94% | EC50 [2]: 9.4 µM
SMILES: Nc1nccc(/C=C/c2ccco2)n1

Emax [1]: 101% | EC50 [2]: 2.9 µM
SMILES: Nc1nccc(/C=C/c2ccccc2F)n1

EC50 [2]: > 30 µM
SMILES: C(=C\c1ccnc(-c2ccccc2)n1)/c1ccccc1

EC50 [2]: > 30 µM
SMILES: CN(C)c1nccc(/C=C/c2ccccc2)n1

EC50 [2]: > 30 µM
SMILES: N#Cc1ccccc1/C=C/c1ccnc(N)n1
